Experimental data reported in patent publication US10626107B2, “Crystal form, salt type of substituted 2-hydro-pyrazole derivative and preparation method therefor” (CHIA TAI TIANQING PHARMACEUTICAL GROUP CO., LTD., priority 2016, dated 2020).

How the values were obtained:
[1] = Study on the polymorphs of compound WX_1 (XRPD after treatment in solvents); type: physicochemical
Source text: The solution was centrifuged to obtain a precipitate, which was dried and then subjected to an XRPD detection.

[2] = Solubility tests in different vehicles (HPLC); type: physicochemical; conditions: 26 °C, thermodynamic from solid, room temperature 25 to 27° C.
Method: Samples (about 2 mg) (if the sample was a salt, the required amount of the salt was calculated according to the salt factor in accordance with the criterion that the compound of formula (I) was 2 mg) were weighed respectively and added to a 1.5 mL glass vial. Different vehicles (1 mL) were then added respectively. The above-mentioned suspension was placed on a magnetic stirrer for stirring (room temperature 25 to 27° C.). After stirring for 24 hours, samples were taken. The samples were first centrifuged, and the supernatants were taken. After appropriate dilution according to the situation of the dissolution, the concentrations were determined by HPLC. The results were as follows:
Notes: • FaSSIF: to simulate the intestinal fluid in the small intestine of human in a hunger state before meal; • FeSSIF: to simulate the intestinal fluid in the small intestine of human in a full state after meal; • SGF: to simulate the gastric juice in the empty stomach of human in a hunger state

[3] = Solubility study at different pHs; type: physicochemical; conditions: 37° C.; for solubility at 4 h / solubility at 24 h: thermodynamic from solid; for Solubility 4 hrs / Solubility (24 hrs): LOQ = 0.0003 mg/mL
Method: A magnet was added to the above suspension, which was placed on a magnetic stirrer for stirring (temperature 37° C., dark). After respectively stirring for 4 hours and 24 hours, samples were taken and centrifuged, and the residual solids in the lower layers were tested by XRPD. The samples in the upper layers were filtered with a filtration membrane. The concentrations of the filtrates were determined by HPLC and the pHs were measured. After the HPLC system was equilibrated with a mobile phase, the analysis of the samples started.

[4] = biological target: CDK6/cyclin D1 (Homo sapiens (Human), UniProt Q00534); assay: CDK6/cyclin D1 enzymatic activity (Lance Ultra); type: biochemical; conditions: 180 minutes
CDK6/cyclin D1, sequence (Q00534 whole entry): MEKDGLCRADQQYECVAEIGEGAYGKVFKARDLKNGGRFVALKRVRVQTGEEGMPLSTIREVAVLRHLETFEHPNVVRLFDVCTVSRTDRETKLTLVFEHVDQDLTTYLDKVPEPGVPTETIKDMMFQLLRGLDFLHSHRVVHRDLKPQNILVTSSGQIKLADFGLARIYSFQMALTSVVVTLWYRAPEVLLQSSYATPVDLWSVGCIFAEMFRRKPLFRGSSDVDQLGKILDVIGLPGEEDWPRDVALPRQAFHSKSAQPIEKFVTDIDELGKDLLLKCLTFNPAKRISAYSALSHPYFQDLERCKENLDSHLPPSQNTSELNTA
CDK6/cyclin D1, sequence (P24385 whole entry partner): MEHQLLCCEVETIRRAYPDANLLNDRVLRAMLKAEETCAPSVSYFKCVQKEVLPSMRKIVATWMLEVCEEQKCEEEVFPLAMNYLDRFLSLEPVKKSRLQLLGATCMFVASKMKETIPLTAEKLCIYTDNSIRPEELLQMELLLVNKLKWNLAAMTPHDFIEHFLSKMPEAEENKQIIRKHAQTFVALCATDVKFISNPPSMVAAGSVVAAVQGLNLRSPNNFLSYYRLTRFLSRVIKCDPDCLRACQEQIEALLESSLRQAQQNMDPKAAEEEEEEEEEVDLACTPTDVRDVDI
Method: The components of the buffer included 50 mM hydroxyethylpiperazine ethanesulfonic acid solution (pH 7.5), 1 mM ethylenediaminetetraacetic acid, 10 mM magnesium chloride, 0.01% Brij-35, and 2 mM dithiothreitol.

[5] = test system: MCF-7 breast cancer cells; assay: Inhibition assay of the A crystal form of WX_1 on MCF-7 breast cancer cell proliferation (CellTiter-Glo); type: cell-based; conditions: Homo sapiens, MCF7, 144 h; MCF-7 cells, 6 days
Method: RPMI 1640 medium, fetal bovine serum and penicillin/streptomycin as antibiotics were purchased from Promega (Madison, Wis.). The MCF-7 cell line was purchased from the European Collection of Authenticated Cell Cultures (ECACC). Envision MultiLabel Plate Reader (PerkinElmer).
MCF-7 cells were seeded in a black 384-well plate with 45 μL of cell suspension (containing 200 MCF-7 cells) per well. The cell plate was placed in a carbon dioxide incubator for overnight culture.
The test compounds were diluted 3 times to the 10th concentration with Bravo, i.e., diluted from 10 μM to 0.508 nM, and a duplicate-well experiment was set. The medium was added to the middle plate in an amount of 49 μL per well. The gradient-diluted compounds were transferred in an amount of 1 μL per well to the middle plate according to the corresponding positions, and the mixture was mixed evenly and transferred to the cell plate in an amount of 5 μL per well. The cell plate was incubated in a carbon dioxide incubator for 6 days.
Promega CellTiter-Glo reagent was added to the cell plate in an amount of […] per well, and incubated for 10 minutes at room temperature to stabilize the luminescence signal. Reading was performed using a PerkinElmer Envision Multilabel Plate Reader.

[6] = test system: human lung cancer LU-01-0393 subcutaneous xenograft tumor; assay: In vivo drug efficacy study (II): human lung cancer LU-01-0393 subcutaneous xenograft tumor model; set-up: species or system BALB/c nude mice; conditions: 45 mg/kg PO QD × 3W
Source text: Cell line-derived xenograft (CDX) BALB/c nude mice that were female, 6- to 8-week old, weighed 17 to 20 g, and subcutaneously implanted with human tumor cell line derived from LU-01-0393 lung cancer patient were used. A total of 72 mice were needed and were purchased from Shanghai Xipuer-Bikai Experimental Animal Co., Ltd. Human lung cancer LU-01-0393 tumor (i.e., non-small cell lung cancer) was originally derived from a clinical sample of a surgical resection. It was defined as passage PO after being inoculated to nude mice, and the tumor of passage PO was re-inoculated to nude mice and was then defined as passage P1, and so forth. Passage was performed in nude mice. LU-01-0393-FP5 was obtained from the transplantation after the recovery of P4. This study would use the tumor tissue of passage FP6.
BALB/c nude mice that were female, 6- to 8-week old, and weighed approximately 17 to 20 g were used. The mice were maintained in separate ventilated cages in a special pathogen-free environment. All the cages, bedding and water were disinfected prior to use. All the animals were free to access a standard certified commercial laboratory diet. A total of 72 mice purchased from Shanghai Xipuer-Bikai Experimental Animal Co., Ltd. were used for the study. The LU-01-0393 FP6 tumor tissue was cut to 20 to 30 mm^3 and inoculated to the right back of each mouse to wait for the tumor growth. When the average tumor volume reached about 171 mm^3, the mice were randomized into groups and administered. The test compounds were orally administered daily, and the administration dosages were as shown in the above table. The tumor diameters were measured twice a week using a two-dimensional caliper. The tumor volumes were calculated by the following formula: V=0.5 a×b^2, wherein a and b were the long diameter and the short diameter of a tumor, respectively. The anti-tumor efficacy was determined by dividing the average increase of the tumor volumes of the animals treated with a compound by the average increase of the tumor volumes of the animals without being treated with the compound.

[7] = aqueous buffer, pH 3.8 buffer (pH 3.80)
[8] = aqueous buffer, pH 4.5 buffer (pH 4.48)
[9] = aqueous buffer, pH 5.5 buffer (pH 5.52)
[10] = aqueous buffer, pH 6.0 buffer (pH 6.04)
[11] = simulated gastric fluid, 0.01N HCl (pH 1.99)
[12] = simulated gastric fluid, 0.1N HCl (pH 1.00)

SMILES: CC(C)c1c2cc(-c3nc(Nc4ccc(N5CCNCC5)cn4)ncc3F)ccc2nn1C.O=C(O)/C=C\C(=O)O [A crystal form of compound WX_1]
- Crystal form ([1]; acetone, 40° C. in the dark for 2 days): A crystal form
- Crystal form ([1]; acetone-water (1:2), Volatilization of supernatant): amorphous (Volatilization)
- Crystal form ([1]; ethanol, 40° C. in the dark for 2 days): A crystal form
- Crystal form ([1]; ethanol-water (3:1), Volatilization of supernatant): amorphous (Volatilization)
- Crystal form ([1]; ethyl acetate, 40° C. in the dark for 2 days): A crystal form
- Crystal form ([1]; isopropanol, 40° C. in the dark for 2 days): A crystal form
- Crystal form ([1]; isopropanol-water (1:1), Volatilization of supernatant): A crystal form
- Crystal form ([1]; methanol, 40° C. in the dark for 2 days): A crystal form
- Crystal form ([1]; methanol-water (3:1), 40° C. in the dark for 2 days): A crystal form
- solubility at 24 h ([2]; simulated gastric fluid, SGF, read-out: Solubility SGF): > 2000 µg/mL
- solubility at 24 h ([2]; FaSSIF, read-out: Solubility FaSSIF): 23 µg/mL
- solubility at 24 h ([2]; FeSSIF, read-out: Solubility FeSSIF): 1600 µg/mL
- solubility at 24 h ([2]; water, water, H2O, read-out: Solubility H2O): 1140 µg/mL
- Description of Solubility ([3]; 0.01N HCl (pH 1.99)): slightly soluble
- Description of Solubility ([3]; 0.1N HCl (pH 1.00)): slightly soluble
- solubility at 4 h [3, 7]: > 2500 µg/mL
- solubility at 24 h [3, 7]: > 2500 µg/mL
- solubility at 4 h [3, 8]: > 2500 µg/mL
- solubility at 24 h [3, 8]: > 2500 µg/mL
- solubility at 4 h [3, 9]: 110 µg/mL
- solubility at 24 h [3, 9]: 138 µg/mL
- solubility at 4 h [3, 10]: 2 µg/mL
- solubility at 24 h [3, 10]: 2 µg/mL
- Description of Solubility ([3]; pH 3.8 buffer (pH 3.80)): slightly soluble
- Description of Solubility ([3]; pH 4.5 buffer (pH 4.48)): slightly soluble
- Description of Solubility ([3]; pH 5.5 buffer (pH 5.52)): sparingly soluble
- Description of Solubility ([3]; pH 6.0 buffer (pH 6.04)): practically insoluble
- Description of Solubility ([3]; pH 6.8 buffer (pH 6.80)): practically insoluble
- Solubility 4 hrs ([3]; pH 6.8 buffer (pH 6.80)): <LOQ*
- Solubility (24 hrs) ([3]; pH 6.8 buffer (pH 6.80)): <LOQ
- Description of Solubility ([3]; pH 7.4 buffer (pH 7.39)): practically insoluble
- Solubility 4 hrs ([3]; pH 7.4 buffer (pH 7.39)): <LOQ
- Solubility (24 hrs) ([3]; pH 7.4 buffer (pH 7.39)): <LOQ
- Description of Solubility ([3]; purified water (pH 6.05)): slightly soluble
- solubility at 4 h [3, 11]: > 2500 µg/mL
- solubility at 24 h [3, 11]: > 2500 µg/mL
- solubility at 4 h [3, 12]: > 2500 µg/mL
- solubility at 24 h [3, 12]: > 2500 µg/mL
- solubility at 4 h ([3]; purified water (pH 6.05)): 1110 µg/mL
- solubility at 24 h ([3]; purified water (pH 6.05)): 1220 µg/mL
- IC50 [4]: < 0.8 nM
- IC50 [5]: 70 nM
- Tumor volume Day 0 ([6]; Day 0): 171 ± 26 mm^3
- Tumor volume Day 7 ([6]; Day 7): 172 ± 33 mm^3
- Tumor volume Day 14 ([6]; Day 14): 150 ± 29 mm^3
- Tumor volume Day 21 ([6]; Day 21): 175 ± 42 mm^3
